The test system of experiment [1] is IGFBP7 protein. Put plainly: IGFBP7 protein expression (immunoblotting) in rat neonatal cardiomyocytes treated with hypertrophic stimuli. The following applies: vs solvent treated control. The class given is cell-based. As for the experimental part: In order to investigate where Igfbp7 is localized under stress, immunofluorescent staining were used to visualize Igfbp7 in rNCM 2 and 24 hours post treatment. As shown in FIG. 3(b), Igfbp7 were evenly distributed in untreated control cells. Hypertrophic stimuli not only led to increased Igfbp7 expression, but also led to Igfbp7 being localized to the cell membrane. Co-immunostaining with FM1-43 as shown (FIG. 3(c)), upon isoproterenol treatment, Igfbp7 (red) not only moved to cell membrane region, but also co-localized with FM1-43 labeled membrane bound vesicle (green), indicating Igfbp7 was trapped into the membrane bound vesicles for secretion.
NC represents solvent treated control. FIGS. 3(b) and 3(c) show representative confocal microscopy images. […] IGFBP7 was immunofluoresently stained with Alexa Fluor 555 labeled anti-IGFBP7 antibody.
Whole-cell lysates from tissue and cell samples were prepared on ice with Cell Lysis Buffer (Cell Signaling, 9803) containing a Complete cocktail of proteases inhibitors (Roche Applied Science, 05892791001). Lysates were cleared by centrifugation at 12,000 rpm for 10 min. The supernatants were collected and protein concentrations determined using the Bio-Rad Bradford protein assay (Bio-Rad, 500-0006). 20 μg of protein lysate were separated by Bolt Bis-Tris Plus mini Gel System (ThermoFisher) and electrophoretically transferred to PVDF membranes (Bio-Rad, 162-0177). Membranes were incubated overnight at 4° C. with antibodies reactive to the following proteins: IGFBP7 (Abcam, ab171085, 1:1000), CTGF (Abcam, ab6992, 1:1000), 53BP1 (Santa Cruz Biotechnology, sc-22760, 1:200), p21 (Santa Cruz Biotechnology, sc-397, 1:200), Acetyl-p53 (Lys379) (Cell Signaling, #2570, 1:1000), p53 (1C12) (Cell Signaling, #2524, 1:1000), Phospho-IRS-1 (Ser612) (Cell Signaling, #3203, 1:500), Phospho-IRS-1 (Ser318) (Cell Signaling, #5610, 1:500), IRS-1 (Cell signaling, #3407, 1:500), Phospho-Akt (Ser473) (Cell Signaling, #4060, 1:1000), Phospho-Akt (Thr308) (Cell Signaling, #4056, 1:1000), Akt (pan) (Cell Signaling, #4691, 1:1000), Phospho-Erk1/2 (Thr202/Tyr204) (Cell Signaling, #4307, 1:1000), Erk1/2 (Cell Signaling, #9102, 1:1000), Phospho-GSK-3β (Ser9) (Cell Signaling, #9323, 1:1000), GSK-3β (Cell Signaling, #9315, 1:1000), Phospho-IGF-1 Receptor β ((Thy1135) (Cell Signaling, #3918, 1:500), IGF-1 Receptor β (Cell Signaling, #9750, 1:500). […] The intensity of the chemiluminescence signals were detected by using the ChemiDoc XRS+ System (Bio-Rad, 1708265) and quantified using Image Lab software (version 5.2; Bio-Rad). […]
Background: Immunoblotting shows a protein as a band on a membrane.

The subject of experiment [2] is IGF-1 Receptor β and Akt phosphorylation. Nature of the experiment: IGF-1 receptor-dependent signaling (immunoblotting) in IGFBP7 deficient and WT MEF. The class given is cell-based. The following applies: ppp 1 or 10 μM for 1 h, IGF-1 (100 ng/ml) 15 min.
In experiment [3] the test system is IGF-1/Insulin induced AKT activation. Nature of the experiment: IGF-1/Insulin induced AKT/GSK3β activation (immunoblotting) in human cardiac myocytes. The class given is cell-based. To be noted: HCM with IGFBP7 siRNA, ppp pre-treatment 1 or 10 μM for 1 h, IGF-1 (100 ng/ml) 15 min. The protocol:
Indeed, in FIG. 9, human cardiac myocytes were treated with (−)control siRNA and IGFBP7 siRNA for 48 h, followed by replacement with basic medium (serum and growth factors withdrew) for 4 h. In FIG. 9(a), the cells were then stimulated with IGF1 (100 ng/ml) or Insulin (4 μg/ml) for 15 min, before lyses of the cell for immunoblotting. Representative immunoblotting of phosphor-AKT, total AKT, phosph-GSK3β and total GSK3β are shown. GAPDH was used as loading control. In FIG. 9(b), before adding IGF-1, cells were pre-treated with IGF-1R inhibitor Picropodophyllin (PPP) ppp at 1 or 10 μM for 1 h, and finally stimulated with IGF-1 (100 ng/ml) for 15 min. Representative immunoblotting of phosphor-AKT and total AKT showing reduced AKT activity in IGFBP7 knock down cells is shown. GAPDH was used as loading control. […] GAPDH were used as loading control.
Whole-cell lysates from tissue and cell samples were prepared on ice with Cell Lysis Buffer (Cell Signaling, 9803) containing a Complete cocktail of proteases inhibitors (Roche Applied Science, 05892791001). […] The supernatants were collected and protein concentrations determined using the Bio-Rad Bradford protein assay (Bio-Rad, 500-0006). […] The intensity of the chemiluminescence signals were detected by using the ChemiDoc XRS+ System (Bio-Rad, 1708265) and quantified using Image Lab software (version 5.2; Bio-Rad). […]

For experiment [4], the system named is IGF-1/Insulin induced AKT and Gsk3β activation. Put plainly: IGF-1/Insulin induced Akt and Gsk3β activation in HCM with internal over-expression of IGFBP7. The class given is cell-based, human. To be noted: HCM transfected with IGFBP7 plasmid, inhibitor 500 nM for 1 h before IGF-1 or Insulin 15 min.
Experiment [5] has the same test system. Put plainly: Effect of external recombinant IGFBP7 protein on IGF-1/Insulin induced AKT and Gsk3β activation in HCM. It counts as cell-based, human. To be noted: HCM pretreated with recombinant protein for 2 h, then IGF-1 or insulin 15 min. The protocol: HCM were pretreated with recombinant IGFBP7 protein at indicated concentration for 2 h, followed by IGF-1 or insulin induction for 15 min. Vinculin was used as loading control.
Whole-cell lysates from tissue and cell samples were prepared on ice with Cell Lysis Buffer (Cell Signaling, 9803) containing a Complete cocktail of proteases inhibitors (Roche Applied Science, 05892791001). Lysates were cleared by centrifugation at 12,000 rpm for 10 min. The supernatants were collected and protein concentrations determined using the Bio-Rad Bradford protein assay (Bio-Rad, 500-0006). 20 μg of protein lysate were separated by Bolt Bis-Tris Plus mini Gel System (ThermoFisher) and electrophoretically transferred to PVDF membranes (Bio-Rad, 162-0177). […] The intensity of the chemiluminescence signals were detected by using the ChemiDoc XRS+ System (Bio-Rad, 1708265) and quantified using Image Lab software (version 5.2; Bio-Rad). […]
To generate IGFBP7 expression plasmid, human IGFBP7 CDS with 6× His Epitope tag added to the 3′-end were generated by GeneArt gene synthesis and subcloned into pcDNA3.4 TOPO TA Cloning vector (ThermoFisher) to make plasmid pcDNA3.4-hIGFBP7-6× His. […] Expression of secreted IGFBP7-6× His recombinant protein in culture media was monitored daily by immonoblotting with anti 6× His Epitope Tag antibody (ThermoFisher, MA1-21315). […]

For “angiotensin II (DRVYIHPF; Angiotensin-2; UniProt P01019 25-32, looked up) [hypertrophic stimulus]”, the IGFBP7 protein expression entry in experiment [1] (100 nM angiotensin II) was “significantly up-regulated”.
Consider `CNC[C@H](O)c1cccc(O)c1` [phenylephrine], for which the IGFBP7 protein expression entry in experiment [1] (phenylephrine 200 nM) was “significantly up-regulated”.
For `COc1cc([C@@H]2c3cc4c(cc3[C@H](O)[C@H]3COC(=O)[C@@H]23)OCO4)cc(OC)c1OC` [Picropodophyllin, picropodophyllin], in experiment [2], the “AKT phosphorylation in IGFBP7 deficient MEF” value is on record as “further reduced”, the “AKT phosphorylation in WT MEF” value is listed as “not in WT MEF” and the “IGF-1R phosphorylation in IGFBP7 deficient MEF” value is “further reduced”. Besides, the “AKT activation after IGF-1 stimulation in IGFBP7 knock down cells” value in experiment [3] is recorded as “further reduced”.
Take `CC(C)NCC(O)c1ccc(O)c(O)c1` (stereo not shown) [isoproterenol]: the IGFBP7 protein expression result in experiment [1] (isoproterenol 100 nM) is reported as “significantly up-regulated”.
As for `C[C@@]1(C(=O)Nc2ccc(F)nc2)CCCN1c1nc(Nc2cc(C3CC3)n[nH]2)c2cccn2n1` [BMS-754807], the “IGF-1/Insulin induced AKT and GSK3β activation increased by internal over-expression of IGFBP7” value in experiment [4] was “blocked”.
On to insulin, for which the IGFBP7 protein expression entry in experiment [1] (insulin 4 μg/ml) was “significantly up-regulated”.

B1: recombinant IGFBP7 protein: recombinant human IGFBP7 protein with 6× His tag expressed in Expi293F cells (protein, UniProt Q16270 27-282, looked up)
Insulin-like growth …: SSSDTCGPCEPASCPPLPPLGCLLGETRDACGCCPMCARGEGEPCGGGGAGRGYCAPGMECVKSRKRRKGKAGAAAGGPGVSGVCVCKSRYPVCGSDGTTYPSGCQLRAASQRAESRGEKAITQVSKGTCEQGPSIVTPPKDIWNVTGAQVYLSCEVIGIPTPVLIWNKVKRGHYGVQRTELLPGDRDNLAIQTRGGPEKHEVTGWVLVSPLSKEDAGEYECHASNSQGQASASAKITVVDALHEIPVKKGEGAEL
modifications: 6xHis tag
notes: recombinant human IGFBP7 protein with 6× His tag expressed in Expi293F cells
As for B1, in experiment [5], the “Effect on IGF-1/Insulin induced AKT and Gsk3β activation” value is recorded as “no observed effect”.

The record behind these values is patent US10865412B2, “Therapeutics targeting IGFBP7 for the treatment or prevention of heart failure and metabolic diseases” (Ottawa Heart Institute Research Corporation, priority 2016, dated 2020).
